Assay results from ChEMBL document CHEMBL1127711, “Preparation of a novel series of phosphonate norstatine renin inhibitors” (Bioorg Med Chem Lett, 1994).

Biological target: T1, Renin (Homo sapiens, UniProt P00797)
T1 sequence (P00797 whole entry): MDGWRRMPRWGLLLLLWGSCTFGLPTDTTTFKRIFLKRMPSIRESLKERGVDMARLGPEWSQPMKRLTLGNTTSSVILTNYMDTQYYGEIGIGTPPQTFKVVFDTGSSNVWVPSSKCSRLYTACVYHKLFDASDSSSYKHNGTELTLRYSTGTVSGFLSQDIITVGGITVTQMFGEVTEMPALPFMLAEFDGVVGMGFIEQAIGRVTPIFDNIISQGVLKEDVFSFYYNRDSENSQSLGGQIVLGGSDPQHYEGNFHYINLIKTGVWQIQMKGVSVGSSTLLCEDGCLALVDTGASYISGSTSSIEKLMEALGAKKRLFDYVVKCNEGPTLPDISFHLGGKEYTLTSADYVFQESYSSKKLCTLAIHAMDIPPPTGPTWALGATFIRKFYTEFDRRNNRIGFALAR
Assay: Compound was tested for the inhibition of human plasma renin(Hu Renin)
Format: cell-free

IC50 [nM] | SMILES
5.8 | COP(=O)(OC)C(O)[C@H](CC1CCCCC1)NC(=O)[C@H](CSC)NC(=O)[C@H](Cc1ccccc1)NC(=O)N1CCOCC1 (some centres not stated)
32 | CCCC[C@H](NC(=O)[C@H](Cc1ccccc1)NC(=O)N1CCOCC1)C(=O)N[C@@H](CC1CCCCC1)C(O)P(=O)(OC)OC (some centres not stated)
60 | CCCOP(=O)(OCCC)C(O)[C@H](CC1CCCCC1)NC(=O)[C@H](CSC)NC(=O)[C@H](Cc1ccccc1)NC(=O)N1CCOCC1 (some centres not stated)
190 | COP(=O)(OC)C(O)[C@H](CC1CCCCC1)NC(=O)[C@H](CCc1cnc[nH]1)NC(=O)[C@H](Cc1ccccc1)NC(=O)N1CCOCC1 (some centres not stated)
25 | CCOP(=O)(OCC)C(O)[C@H](CC1CCCCC1)NC(=O)[C@H](CSC)NC(=O)[C@H](Cc1ccccc1)NC(=O)N1CCOCC1 (some centres not stated)
1400 | CSC[C@H](NC(=O)[C@H](Cc1ccccc1)NC(=O)N1CCOCC1)C(=O)N[C@@H](CC1CCCCC1)C(O)P(=O)(OC(C)C)OC(C)C (some centres not stated)
190 | CSC[C@H](NC(=O)[C@H](Cc1ccccc1)NC(=O)N1CCOCC1)C(=O)N[C@@H](CC1CCCCC1)C(O)P(=O)(OCc1ccccc1)OCc1ccccc1 (some centres not stated)
